Measurements published in PubChem BioAssay (NCI).
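Following 48 hours of exposure in 96-well plates, responses at five concentrations were used to interpolate endpoints linearly. Here, GI50 denotes the concentration required for 50% inhibition of growth. TGI denotes the concentration required for complete inhibition of growth.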

Experiments:
Test in all cases: inhibition of tumour cell growth, NCI panel, 48 h
[1] = system: HOP-62 NSCLC
[2] = system: UO-31 renal
[3] = system: T-47D breast
[4] = system: HCT-116 colon
[5] = system: RPMI-8226 leukemia
[6] = system: EKVX NSCLC
[7] = system: DU-145 prostate
[8] = system: 786-0 renal
[9] = system: OVCAR-3 ovarian
[10] = system: RXF 393 renal
[11] = system: MCF7 breast
[12] = system: SF-295 CNS
[13] = system: ACHN renal
[14] = system: SW-620 colon
[15] = system: SK-MEL-2 melanoma
[16] = system: SK-MEL-5 melanoma
[17] = system: KM12 colon
[18] = system: CAKI-1 renal
[19] = system: MOLT-4 leukemia
[20] = system: OVCAR-8 ovarian
[21] = system: MDA-MB-231 breast
[22] = system: OVCAR-5 ovarian
[23] = system: UACC-257 melanoma
[24] = system: HT29 colon
[25] = system: A549 NSCLC
[26] = system: SN12C renal
[27] = system: IGROV1 ovarian
[28] = system: PC-3 prostate
[29] = system: HCT-15 colon
[30] = system: SK-MEL-28 melanoma
[31] = system: CCRF-CEM leukemia
[32] = system: HOP-92 NSCLC
[33] = system: HL-60(TB) leukemia
[34] = system: HCC-2998 colon
[35] = system: NCI-H460 lung
[36] = system: SNB-75 CNS
[37] = system: OVCAR-4 ovarian
[38] = system: SK-OV-3 ovarian
[39] = system: SF-539 CNS
[40] = system: LOX IMVI melanoma
[41] = system: MDA-MB-435
[42] = system: SR leukemia
[43] = system: A498 renal
[44] = system: M14 melanoma
[45] = system: UACC-62 melanoma
[46] = system: MALME-3M melanoma
[47] = system: HS 578T breast
[48] = system: TK-10 renal
[49] = system: U251 CNS
[50] = system: SNB-19 CNS
[51] = system: COLO 205 colon
[52] = system: SF-268 CNS
[53] = system: K-562 leukemia
[54] = system: NCI/ADR-RES ovarian
[55] = system: BT-549 breast
[56] = system: NCI-H522 lung

Work on `CN1CCN(c2nc(-c3csc(-c4ccccc4)n3)cc3ccccc23)CC1` yielded a GI50 [1] of 2.58 µM, a TGI [1] of 10.6 µM and a GI50 [2] of 2.19 µM. The TGI [2] was 8.18 µM, the GI50 [3] was 2.07 µM and the TGI [3] was 5.53 µM. The GI50 [4] was 1.61 µM, the TGI [4] was 2.98 µM and the GI50 [5] was 2.09 µM. For the same compound, the TGI [5] was 5.37 µM, the GI50 [6] was 3.36 µM and the TGI [6] was 13 µM. For the same compound, the GI50 [7] was 2.7 µM, the TGI [7] was 7.98 µM and the GI50 [8] was 1.68 µM. It also gave a TGI [8] of 3.34 µM, a GI50 [9] of 3.04 µM and a TGI [9] of 11.8 µM. The GI50 [10] was 1.96 µM, the TGI [10] was 5.22 µM and the GI50 [11] was 1.65 µM. It also gave a TGI [11] of 3.46 µM, a GI50 [12] of 4.97 µM and a TGI [12] of 17.6 µM. For the same compound, the GI50 [13] was 2.1 µM, the TGI [13] was 4.77 µM and the GI50 [14] was 1.63 µM. The TGI [14] was 3.12 µM, the GI50 [15] was 14.1 µM and the TGI [15] was 29.2 µM. It also gave a GI50 [16] of 3.26 µM, a TGI [16] of 12.1 µM and a GI50 [17] of 1.95 µM. It also gave a TGI [17] of 3.99 µM, a GI50 [18] of 1.61 µM and a TGI [18] of 3.52 µM. The GI50 [19] was 2.02 µM, the TGI [19] was 4.04 µM and the GI50 [20] was 1.79 µM. It also gave a TGI [20] of 3.79 µM, a GI50 [21] of 1.94 µM and a TGI [21] of 4.38 µM. For the same compound, the GI50 [22] was 3.23 µM, the TGI [22] was 12.8 µM and the GI50 [23] was 1.89 µM. The TGI [23] was 4.19 µM, the GI50 [24] was 1.75 µM and the TGI [24] was 3.28 µM. The GI50 [25] was 10.3 µM, the TGI [25] was 22.7 µM and the GI50 [26] was 3.45 µM. It also gave a TGI [26] of 12.1 µM, a GI50 [27] of 1.88 µM and a TGI [27] of 4.55 µM. It also gave a GI50 [28] of 2.25 µM, a TGI [28] of 6.25 µM and a GI50 [29] of 1.85 µM. For the same compound, the TGI [29] was 3.66 µM, the GI50 [30] was 1.74 µM and the TGI [30] was 3.28 µM. It also gave a GI50 [31] of 1.96 µM, a TGI [31] of 4.34 µM and a GI50 [32] of 1.88 µM. For the same compound, the TGI [32] was 7.63 µM, the GI50 [33] was 1.84 µM and the TGI [33] was 3.91 µM. For the same compound, the GI50 [34] was 1.66 µM, the TGI [34] was 3.08 µM and the GI50 [35] was 1.73 µM. For the same compound, the TGI [35] was 3.27 µM, the GI50 [36] was 5.97 µM and the TGI [36] was 20.8 µM. It also gave a GI50 [37] of 4.1 µM, a TGI [37] of 19.8 µM and a GI50 [38] of 12.3 µM. It also gave a TGI [38] of 28.2 µM, a GI50 [39] of 1.79 µM and a TGI [39] of 3.45 µM. It also gave a GI50 [40] of 1.66 µM, a TGI [40] of 3.09 µM and a GI50 [41] of 1.78 µM. The TGI [41] was 3.47 µM, the GI50 [42] was 1.58 µM and the TGI [42] was 3.97 µM. The GI50 [43] was 14.8 µM, the TGI [43] was 28.9 µM and the GI50 [44] was 1.8 µM. It also gave a TGI [44] of 3.55 µM, a GI50 [45] of 1.93 µM and a TGI [45] of 3.88 µM. It also gave a GI50 [46] of 2 µM, a TGI [46] of 4.23 µM and a GI50 [47] of 4.57 µM. For the same compound, the TGI [47] was 27.1 µM, the GI50 [48] was 14.6 µM and the TGI [48] was 28.9 µM. For the same compound, the GI50 [49] was 2.34 µM, the TGI [49] was 6.22 µM and the GI50 [50] was 5.52 µM. For the same compound, the TGI [50] was 21.3 µM, the GI50 [51] was 1.68 µM and the TGI [51] was 3.19 µM. It also gave a GI50 [52] of 4.67 µM, a TGI [52] of 19.4 µM and a GI50 [53] of 1.84 µM. It also gave a TGI [53] of 3.66 µM, a GI50 [54] of 1.93 µM and a TGI [54] of 4.25 µM. For the same compound, the GI50 [55] was 13 µM, the TGI [55] was 36.4 µM and the GI50 [56] was 1.93 µM. The TGI [56] was 4.44 µM.
